Read-outs that look alike come from different tables or passages of the source.
Experiments:
[1] = target: T1, rat liver MAO-A (Rattus norvegicus, UniProt P21396); experiment: In vitro inhibition of rat liver MAO-A; type: biochemical
T1 construct: from tissue; host or cells: rat liver
T1 sequence (P21396 1-526): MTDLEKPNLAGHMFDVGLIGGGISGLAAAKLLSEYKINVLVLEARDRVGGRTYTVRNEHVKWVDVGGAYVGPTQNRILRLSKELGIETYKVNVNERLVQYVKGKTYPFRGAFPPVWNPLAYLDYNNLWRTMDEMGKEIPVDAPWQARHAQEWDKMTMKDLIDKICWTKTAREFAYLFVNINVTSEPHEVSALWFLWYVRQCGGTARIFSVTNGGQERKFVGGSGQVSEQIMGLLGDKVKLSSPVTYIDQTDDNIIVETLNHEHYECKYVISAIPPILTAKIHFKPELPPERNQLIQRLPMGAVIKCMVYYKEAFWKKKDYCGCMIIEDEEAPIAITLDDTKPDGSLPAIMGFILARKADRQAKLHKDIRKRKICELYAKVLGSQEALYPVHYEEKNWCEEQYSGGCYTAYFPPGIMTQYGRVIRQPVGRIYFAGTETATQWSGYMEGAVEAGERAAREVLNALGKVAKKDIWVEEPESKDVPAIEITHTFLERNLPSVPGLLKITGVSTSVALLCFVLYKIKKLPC
Description: […] The P2 fraction was prepared and was stored frozen until being thawed for use on the day of assay. Final concentrations of 50 μM [^14C]-serotonin (5-HT) and 10 μM [^14C]-phenylethylamine (PEA) were employed as specific substrates for MAO-A and MAO-B, respectively. Test compound inhibition was based on competition for oxidation of these radio-labeled substrates. MAO-A assay specificity was enhanced by inclusion of 0.1 μM deprenyl to prevent substrate oxidation by MAO-B. Likewise, MAO-B assays included 0.1 μM clorgyline to block MAO-A activity. […] Inhibition of enzymatic activities was expressed as IC50 and as the Ki, which was calculated using the Cheng-Prusoff equation.

[2] = Phase I modified release tablets BID safety; type: in vivo, human; conditions: 125 mg and 175 mg BID, 7 days each
Description: (§1) Methods: A total of 20 Subjects (16 on CX157 and 4 on placebo) were dosed with CX157 Modified Release Tablets, 125 mg BID (total daily dose of 250 mg) or placebo in Period 1 for 7 days. Of the 20 subjects, 19 continued in Period 2 of the study where they received CX157 Modified Release Tablets, 175 mg BID (total daily dose of 350 mg) or placebo in the fed state for 7 days. Subjects who were randomized to CX157 125 mg BID in Period 1 received CX157 175 mg BID in Period 2, after a washout of 7 days. Subjects randomized to placebo in Period 1 received placebo in Period 2, after a washout of 7 days. Blood samples for PK analysis were collected during both periods of the study.

[3] = Phase I modified release tablets BID pharmacokinetics; type: in vivo, human; conditions: for Cmax / AUC / concentration at 7 day: human, plasma, oral, 125 mg
Description: as §1, with “Of the 20 subjects, 19 continued in Period 2 of the study where they received CX157 Modified Release Tablets, 175 mg BID (total daily dose of 350 mg) or placebo in the fed state for 7 days.” left out
Each oval, biconvex CX157 Film Coated Tablet, 125 mg has a white opaque film coating (Advantia™ Prime) and is stored long-term at controlled room temperature conditions [25° C. (77° F.); excursions 15-30° C. (59-86° F.)].
Each CX157 Modified Release Tablet, 175 mg is stored long-term at controlled room temperature conditions [25° C. (77° F.), excursions 15-30° C. (59-86° F.)]; the tablets are a modified caplet shape, pale pink in color, and plain on both sides.

[4] = target: T2, Oxidase MAO-A Peripheral (Rattus norvegicus, UniProt P21396); experiment: NovaScreen ligand-binding screen, MAO-A
T2 construct: purchased NovaScreen
T2 sequence (P21396 1-526): T1 sequence (P21396 1-526)
Description: Methods: Investigational drug candidates CX157 were analyzed in NovaScreen's bank of ligand-binding reactions to test for specificity. CX157 was screened at concentrations of both 10.0 nM and 100 nM as potential competitors in binding reactions involving nine classes containing 69 binding sites. The following binding reactions are tested: Adenosine Non-selective, Adrenergic Alpha 1 Non-selective, Adrenergic Alpha 2 Non-selective, Adrenergic Beta Non-selective, Dopamine Transporter, Dopamine Non-selective, GABA A Agonist Site, GABA A BDZ alpha 1 site, GABA B, Glutamate AMPA Site (Ionotropic), Glutamate Kainate Site (Ionotropic), Glutamate NMDA Agonist Site (Ionotropic), Glutamate NMDA Glycine (Stry-insens Site) (Ionotrophic), Glycine Strychnine-sensitive, Histamine H1, Histamine H2, Histamine H3, Melatonin Non-selective, Muscarinic M1 (hr), Muscarinic M2 (hr), Muscarinic Non-selective Central, Muscarinic Non-selective Peripheral, Nicotinic (α-BnTx insensitive) Neuronal, Norepinephrine Transporter, Opioid Non-selective, Orphanin (hr), Serotonin Transporter, Serotonin Non-selective, Sigma Non-selective, Estrogen, Testosterone (cytosolic), Calcium Channel Type L (Dihydropyridine Site), Calcium Channel Type N, Potassium Channel ATP-Sensitive, Potassium Channel Ca2+ Act. VI, Potassium Channel I[Kr]

For O=S1(=O)c2ccc(F)cc2Oc2cc(OCC(F)(F)F)ccc21 [CX157, 3-fluoro-7(2,2,2-trifluorethoxy)phenoxathiine-10,10-dioxide], the “Ki for CX157/Ki for RO-41-1049” value ([1]; Liver MAO-A) was 0.126, the IC50 ([1]; rat liver, 50 μM [14C]-5-HT) was 2.22 nM and the Ki ([1]; rat liver, Cheng-Prusoff) was 0.91 nM. The tolerability [2] was “well tolerated”, the “fluctuation in CX157 concentrations during each 12-h dosing interval at steady state” value ([3]; 125 mg BID, Day 7) was 4.6 fold and the “accumulation, Day 7 versus Day 1 exposures” value ([3]; BID dosing with 125 mg MR tablets) was 2.6 fold. It also gave a Cmax ([3]; 125 mg BID, Day 1, read-out: mean Cmax) of 134 ± 103 ng/mL, an AUC ([3]; 12-hour AUC, 125 mg BID, Day 1) of 702 ± 500 ng·h/mL and an AUC ([3]; MR tablets 125 mg BID, Day 7, mean, read-out: AUCSS) of 1280 ± 651 ng·h/mL. For the same compound, the concentration at 7 day ([3]; MR tablets 125 mg BID, Day 7, mean, read-out: CSS) was 107 ± 54 ng/mL, the Cmax ([3]; MR tablets 125 mg BID, Day 7, mean, read-out: Cmax) was 231 ± 114 ng/mL and the concentration at 7 day ([3]; MR tablets 125 mg BID, Day 7, mean, read-out: Cmin) was 54.9 ± 32 ng/mL. The “reduction of [14C]-5-HT binding” value ([4]; 10.0 nM CX157) was 63.4%, the “reduction of [14C]-5-HT binding” value ([4]; 100 nM CX157) was 100.6% and the Kd ([4]; read-out: Kd, competition for [14C]-serotonin (5-HT) binding) was 8.7 nM.
